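Method: 48-hour compound exposure of cells in 96-well plates, five concentrations, linear interpolation of endpoints. The concentration for 50% growth inhibition is given as GI50. Definition used: TGI = concentration required for complete inhibition of growth.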
Assays:
Assay in all cases: inhibition of tumour cell growth, NCI panel, 48 h
[1] = tested on: SF-268 CNS
[2] = tested on: NCI-H226 lung
[3] = tested on: K-562 leukemia
[4] = tested on: CAKI-1 renal
[5] = tested on: SF-539 CNS
[6] = tested on: TK-10 renal
[7] = tested on: HCC-2998 colon
[8] = tested on: SNB-75 CNS
[9] = tested on: HS 578T breast
[10] = tested on: EKVX NSCLC

Row | Structure (SMILES) | GI50 [1] [µM] | TGI [1] [µM] | GI50 [2] [µM] | TGI [2] [µM] | GI50 [3] [µM] | TGI [3] [µM] | GI50 [4] [µM] | TGI [4] [µM] | GI50 [5] [µM] | TGI [5] [µM] | GI50 [6] [µM] | TGI [6] [µM] | GI50 [7] [µM] | TGI [7] [µM] | GI50 [8] [µM] | TGI [8] [µM] | GI50 [9] [µM] | TGI [9] [µM] | TGI [10] [µM] | GI50 [10] [µM]
1 | CC/C(=C(/c1ccc(OCCN(C)C)cc1)c1ccc(OC(=O)CCCCCCCCC(=O)c2c(C)[nH]c(/C=C3\N=C(c4ccc[nH]4)C=C3OC)c2C)cc1)c1ccccc1 | 6.63 | > 100 | > 100 | > 100 | 4.54 | > 100 | 7 | > 100 | 10.7 | 61.6 | 21 | > 100 | > 100 | > 100 | 6.25 | > 100 | 4.74 | 85 |  | 
2 | COC(=O)C1=CC(=O)[C@@H]2CCCC[C@H]12 |  | > 100 |  | > 100 |  | > 100 |  | > 100 |  | > 100 |  | > 100 |  | > 100 |  | > 100 |  |  |  | 
3 | Cn1c(=O)c(Oc2ccc(F)cc2F)cc2cnc(NCC(C)(C)O)nc21 | > 25 | > 25 | > 25 | > 25 | > 25 | > 25 | > 25 | > 25 | > 25 | > 25 | > 25 | > 25 | > 25 | > 25 | > 25 | > 25 | > 25 | > 25 |  | 
4 | CSC1=Nc2ccccc2N=C(c2ccccc2)C1 |  | > 100 |  | > 100 |  | > 100 |  | > 100 |  | > 100 |  | > 100 |  | > 100 |  | > 100 |  |  | > 100 | 
5 | COc1ccc(-c2cc(=O)c3cc(O)ccc3o2)c(OC)c1OC |  | 93 |  | > 100 |  | > 100 |  | > 100 |  | > 100 |  | > 100 |  | > 100 |  | 76.5 |  |  | > 100 | 
6 | COc1ccc2nc3ccccc3c(NCCN(CCCl)CCCl)c2c1 |  | 5.74 |  | 4.74 |  | 4.92 |  | 0.937 |  |  |  | 5.59 |  | 2.73 |  | 5.72 |  |  | 8.02 | 
7 | NC(=O)c1csc(-c2ccc(CO)o2)n1 |  | > 100 |  | > 100 |  | > 100 |  | > 100 |  | > 100 |  | > 100 |  |  |  |  |  |  | > 100 | 
8 | COC(=O)C1=CCC2c3[nH]c4ccccc4c3CCN2C1 (centres undefined) |  | > 354 |  | > 354 |  | > 354 |  | > 354 |  | > 354 |  | > 354 |  | > 354 |  |  |  |  | > 354 | 
9 | CC1=C(C(=O)Nc2ccc(C)cc2)C(c2cccc([N+](=O)[O-])c2)C(C(=O)Nc2ccc(C)cc2)=C(C)N1 |  | 52.2 |  | > 100 |  | 63.5 |  | > 100 |  | 36.9 |  | > 100 |  | > 100 |  | 81.4 |  |  | 86.1 | 
10 | CCOC(=O)C(=O)C(C#N)c1ccc(Cl)cc1 (centres undefined) |  | > 100 |  | > 100 |  | > 100 |  | > 100 |  | > 100 |  | > 100 |  |  |  | > 100 |  |  | > 100 | 
11 | CC1=CC[C@@H](C(C)(C)O)C[C@@H]1O |  | > 5000 |  | > 5000 |  | > 5000 |  |  |  | > 5000 |  | > 5000 |  | > 5000 |  | > 5000 |  |  | > 5000 | 
12 | N#C/C(=C\c1ccc[nH]1)C(=O)c1ccccc1 |  | > 100 |  | > 100 |  | > 100 |  | > 100 |  | > 100 |  | > 100 |  | > 100 |  | > 100 |  |  | > 100 | 
13 | N#Cc1cccc(C2C(=O)c3ccc(C(=O)c4ccc5c(c4)C(=O)N(c4ccc(Oc6ccc(N7C(=O)c8ccc(C(=O)c9ccc%10c(c9)C(=O)N(c9cccc(C#N)c9)C%10=O)cc8C7=O)cc6)cc4)C5=O)cc3C2=O)c1 (centres undefined) |  | > 100 |  |  |  | > 100 |  |  |  | > 100 |  | > 100 |  | > 100 |  | > 100 |  |  | > 100 | 
14 | CC1(C)C(CC(=O)O)CCCC1CC(=O)O (centres undefined) |  |  |  | > 100 |  | > 100 |  | > 100 |  |  |  | > 100 |  |  |  |  |  | > 100 | > 100 | 
15 | Clc1ccccc1C1SCc2nc3ccccc3n21 (centres undefined) |  | > 100 |  | 70.6 |  | > 100 |  | > 100 |  | > 100 |  | 71.6 |  |  |  | 11.3 |  |  | 81.9 | 
16 | CCCCCCCCCCCCCCCCCC[S+](C)CC (centres undefined) | 1.18 | 2.88 | 2.08 | 7.58 |  |  | 0.409 | 1.6 |  |  |  |  | 1.23 | 2.68 |  |  |  |  | 4.31 | 1.95
17 | O=C(O)CCC1c2[nH]c3ccccc3c2CCN1Cc1ccccc1 (centres undefined) |  | > 100 |  | > 100 |  | > 100 |  | > 100 |  | > 100 |  | > 100 |  | > 100 |  | > 100 |  |  | > 100 | 
18 | CC(=O)N[C@@H](Cc1ccc(OP(=O)(O)O)cc1)C(=O)N[C@H]1CCC(=O)N2CCC[C@@H](C(=O)NC3CCc4ccccc43)N2C1=O (some centres undefined) | > 25 | > 25 | > 25 | > 25 | > 25 | > 25 | > 25 | > 25 | > 25 | > 25 | > 25 | > 25 | > 25 | > 25 | > 25 | > 25 | > 25 | > 25 |  | 
19 | CN1C2(c3ccccc3)C(C(=O)c3ccccc3)=C(C(=O)c3ccccc3)C1(c1ccccc1)c1c(-c3ccccc3)sc(-c3ccccc3)c12 |  | > 100 |  | > 100 |  | > 100 |  | > 100 |  | > 100 |  | > 100 |  | > 100 |  | > 100 |  |  | > 100 | 
20 | CC(=O)Nc1ccc(C2=N/C(=C\c3ccc(Cl)cc3)C(=O)O2)cc1 |  | 90.9 |  | > 100 |  | 51.8 |  | > 100 |  | > 100 |  | > 100 |  | 38.5 |  | > 100 |  |  | > 100 | 
21 | C[C@]12CCc3nn(-c4ccccc4)nc3C1CC[C@@H]1C2CC[C@]2(C)C(=O)CCC12 (some centres undefined) |  | > 100 |  | > 100 |  | > 100 |  | > 100 |  | > 100 |  | > 100 |  | > 100 |  | > 100 |  |  | > 100 | 

From PubChem BioAssay (NCI)
